We go through 9 compounds from patent US4510307A, “6-Quinazolinesulfonyl derivatives and process for preparation thereof” (Asahi Kasei Kogyo Kabushiki Kaisha, priority 1980, dated 1985).

Where two headings read alike, the source gives them in different places.

One data set relates to mesenteric artery. Put plainly: Relaxation of Mesenteric Artery (isolated rabbit mesenteric artery contracted with KCl). The settings on record: Oryctolagus cuniculus, concentration for 50% relaxation, KCl 15~20 mM contraction, read-out: Relaxation of Mesenteric Artery ED50. As to the method:
When, for example, 1-[4-(N-methyl-N-cyclohexylamino)-6-quinazolinesulfonyl]-4-(2-ethoxy-2-phenylethyl)piperazine was added and a complete relaxation was designated 100%, the concentration which could bring about a relaxation of 50%, i.e., ED50 was 0.8 μM.
After a home bred rabbit of a Japanese species weighing about 3 Kg was subjected to bloodletting, resulting in death and then to abdominal incision, the mesenteric artery was taken out, cut into helicoids of 2 mm×25 mm and suspended in a 20 ml organ bath filled with a Krebs-Henseleit solution into which a mixed gas of 95% by volume of O2 and 5% by volume of CO2 was introduced and one end of the artery was connected with an isometric transducer. When a load of 1.5 g was applied to the artery, the contraction and the relaxation of the artery was recorded as a weight on the transducer (a product of Nippon Koden K.K., Japan, "FD Pickup TB-912T"). The relaxation of the mesenteric artery was observed by adding the 6-quinazolinesulfonyl derivatives and their pharmaceutically acceptable acid addition salts to the mesenteric artery at the condition of about one half of the maxinum contraction with KCl at a KCl concentrantion of 15~20 mM. When the complete relaxation of the mesenteric artery was designated 100%, the concentration of the 6-quinazolinesulfonyl derivatives and their pharmaceutically acceptable acid addition salts which brought about a relaxation of 50% is shown in Table 6.

For data set [1], the system named is human blood platelet cAMP PDE. Put plainly: PDE inhibition, c-AMP-decomposing PDE of human blood platelet. The class given is biochemical. The settings on record: human blood platelet cAMP PDE specimen; read-out: PDE Inhibition I50, Human Blood Platelet (PII). From the text:
(§1) More specifically, from the results of the experiment using an enzyme specimen in accordance with the reports [Mol. Pharmacol., 15, 49 (1979) and Biochem. Biophys. […] The 6-quinazolinesulfonyl derivatives and the pharmaceutically acceptable acid addition salts have inhibited the decomposition due to the enzyme specimens of substrate c-AMP and guanosine-3',5'-monophosphate (abbreviated "c-GMP"). This means that the compounds of this invention can inhibit the decomposition of the c-AMP and maintain the c-AMP in tissue at a high concentration. In other words, the compounds of this invention are effective for the improvement and medical treatment of a disease accompanied by reduction in the c-AMP and a disease accompanied by infiltration of calcium into tissue, for example, the contraction and convulsion of vascular smooth muscle.
(§2) As the enzyme specimens, human blood platelet and hog cerebral cortex were partially purified in accordance with reports [Mol. Pharmacol., 15, 49 (1979) and Biochem. Biophys. Res. Comun., 84, 277 (1978)]. The effect of the 6-quinazolinesulfonyl derivatives and their pharmaceutically acceptable acid addition salts of this invention on the c-AMP-decomposing PDE and the calmodulin or calcium-dependent cyclic nucleotide PDE was examined under the conditions in accordance with the above described reports. […] The activity of the compounds of this invention is expressed by the concentration which is required to inhibit 50% of the decomposition of the c-AMP-decomposing PDE, i.e., I50 by μM.
*^1 The human blood platelet cAMP PDE specimen was employed.

Data set [2] concerns hog cerebral cortex calmodulin or calcium-dependent cyclic nucleotide PDE. The data set is described as follows: PDE inhibition, calmodulin or calcium-dependent cyclic nucleotide PDE of hog cerebral cortex. The data set is classed as biochemical.
From the text: as §1, §2
*^2 The enzyme activity was measured by using calmodulin and Ca^+
dependent specimens. The nonactivation was measured in the presence of
0.2 mM of EGTA, while the activation was measured in the presence of 0.2
mM of CaCl2 and 8 units of calmodulin.

A further data set has as its system femoral artery. The data set is described as follows: Effect on blood flow volume of femoral artery of dog. The data set is classed as in vivo, dog of mixed breed. The conditions noted are these: Canis lupus familiaris; 1 mg/Kg intravenous; anesthetized dog; read-out: Increased Blood Flow Volume in Femoral Artery. As to the method: (§3) The effect of the 6-quinazolinesulfonyl derivatives and the pharmaceutically acceptable acid addition salts of this invention on the vasodilation of the femoral and vertebral arteries can be measured by anesthetizing a dog of mixed breed weighing 8 to 15 Kg by an intravenous administration of 35 mg/Kg of pentbarbital, providing an acute type probe (a product of Nippon Koden K.K., Japan) with the femoral and vertebral arteries, administering the 6-quinazolinesulfonyl derivatives and the pharmaceutically acceptable acid addition salts to the femoral vein through a polyethylene tube inserted into the femoral vein side chain and measuring the blood flow volume with an electromagnetic flowmeter (a product of Nippon Koden K.K., Japan, "MF-27"). For example, when 1 mg/Kg of 1-[4-(N-methyl-N-cyclohexylamino)-6-quinazolinesulfonyl]-4-(2-ethoxy-2- phenylethyl)piperazine was intravenously administered, the increased blood flow volume in the femoral artery was 33% and the increased blood flow volume in the vertebral artery was 59%.
(§4) The effect on the vasodilatation of the femoral and vertebral arteries was measured by anesthetizing a dog of mixed breed weighing 8 to 15 Kg by an intravenous administration of 35 mg/Kg of pentbarbital, providing an acute type probe (a product of Nippon Koden K.K., Japan) with the femoral and vertebral arteries, administering the 6-quinazolinesulfonyl derivatives and their pharmaceutically acceptable acid addition salts to the femoral vein through a polyethylene tube inserted into the femoral vein side chain and measuring the blood flow volume with an electromagnetic blood flowmeter (a product of Nippon Koden K.K., Japan, "MF-27").

The next data set relates to vertebral artery. The data set is described as follows: Effect on blood flow volume of vertebral artery of dog. The settings on record: Canis lupus familiaris; 1 mg/Kg intravenous; anesthetized dog; read-out: Increased Blood Flow Volume in Vertebral Artery. The class given is in vivo, dog of mixed breed. On the procedure:
as §3, §4

Data set [3] is described as follows: Acute toxicity, intravenous administration in mice. The conditions noted are these: mouse, in vivo, male ddY-strain mice. On the procedure: Furthermore, when the 6-quinazolinesulfonyl derivatives and the pharmaceutically acceptable acid addition salts of this invention are intravenously and arterially administered for the above described purposes, any remarkable toxicity cannot be observed.
The acute toxicity of the 6-quinazolinesulfonyl derivatives and their pharmaceutically acceptable acid addition salts was measured by giving male ddY-strain mice an intravenous administration.

The mark [4] stands for this setting: activated: 0.2 mM CaCl2 and 8 units of calmodulin, read-out: PDE Inhibition I50, Hog Cerebral Cortex (PII), Activated.
Where [5] appears, read: non-activated: presence of 0.2 mM EGTA, read-out: PDE Inhibition I50, Hog Cerebral Cortex (PII), Non-activated.
[6] abbreviates: non-activated: presence of 0.2 mM EGTA.

In general, LD50 refers to the dose expected to kill half of the subjects tested. Read a low LD50 as a more toxic substance.

In the case of `NCCCCCCNS(=O)(=O)c1ccc2ncnc(N3CCCCC3)c2c1` [Compound (32), N-(6-aminohexyl)-4-piperidino-6-quinazolinesulfonamide], in the data set on mesenteric artery, the EC50 amounted to 24 µM. For the same compound, the IC50 in data set [1] was 520 µM; in data set [2] (setting [4]), 111 µM; in data set [2] (setting [5]), 94 µM. Further, the results for the change in vivo at 1 mg/kg in the data set with femoral artery and with vertebral artery were 21% and 36%, respectively. The compound further registered an LD50 in data set [3] of 95 mg/kg.

Turning to `CCCCN(CCCC)c1ncnc2ccc(S(=O)(=O)N3CCN(CC(OCC)c4ccccc4)CC3)cc12` (stereo not drawn) [Compound (4), 1-(4-dibutylamino-6-quinazolinesulfonyl)-4-(2-ethoxy-2-phenylethyl)-piperazine], in the data set with mesenteric artery, the EC50 turned out to be 1.3 µM. Moreover, the IC50 in data set [1] was found to be 950 µM; in data set [2] (setting [4]), 370 µM. Also, in data set [2] (setting [6]), the “PDE Inhibition I50, Hog Cerebral Cortex (PII), Non-activated” value is recorded as “not inhibited”. Besides, the figures for the change in vivo at 1 mg/kg in the data set on femoral artery and in the data set with vertebral artery were 33% and 50%, respectively. The compound further gave a 50% lethal dose (LD50) in data set [3] of 135 mg/kg.

As to `CCOC(CN1CCN(S(=O)(=O)c2ccc3ncnc(N(C)C4CCCCC4)c3c2)CC1)c1ccccc1` (stereo not drawn) [Compound (19), 1-[4-(N-methyl-N-cyclohexylamino)-6-quinazolinesulfonyl]-4-(2-ethoxy-2-phenylethyl)piperazine], the EC50 in the data set with mesenteric artery came out at 0.8 µM. The IC50 in data set [1] was 750 µM; in data set [2] (setting [4]) it was 4 µM; in data set [2] (setting [5]), 4 µM. In addition, the change in vivo at 1 mg/kg was found to be 33% with femoral artery and 59% in the data set on vertebral artery. In addition, the LD50 in data set [3] was 63 mg/kg.

With `CCOC(CN1CCN(S(=O)(=O)c2ccc3ncnc(N4CCCCC4)c3c2)CC1)c1ccccc1` (stereo not drawn) [Compound (6), 1-(4-piperidino-6-quinazolinesulfonyl)-4-(2-ethoxy-2-phenylethyl)-piperazine], the EC50 in the data set with mesenteric artery stood at 1.7 µM. The IC50 in data set [1] was determined as 850 µM; in data set [2] (setting [4]) it was 31 µM; in data set [2] (setting [5]) it was 15 µM. For the same compound, the change in vivo at 1 mg/kg in the data set on femoral artery was 31%; in the data set on vertebral artery, 51%. In data set [3], this compound registered an LD50 of 108 mg/kg.

As to `O=S(=O)(c1ccc2ncnc(N3CCCCC3)c2c1)N1CCN(CC=Cc2ccccc2)CC1` [Compound (9), 1-(4-piperidino-6-quinazolinesulfonyl)-4-cinnamylpiperazine], the EC50 in the data set with mesenteric artery was 3 µM. Besides, the IC50 in data set [1] worked out at 700 µM; in data set [2] (setting [4]) it was 20 µM. Moreover, in data set [2] (setting [6]), the “PDE Inhibition I50, Hog Cerebral Cortex (PII), Non-activated” value is recorded as “not inhibited”. Also, the change in vivo at 1 mg/kg was found to be 24% with femoral artery and 42% in the data set with vertebral artery. The LD50 in data set [3] came to 133 mg/kg.

As to `CCOC(CN1CCN(S(=O)(=O)c2ccc3ncnc(N(C)Cc4ccccc4)c3c2)CC1)c1ccccc1` (stereo not drawn) [Compound (25), 1-[4-(N-methyl-N-benzylamino)-6-quinazolinesulfonyl]-4-(2-ethoxy-2-phenylethyl)piperazine], the EC50 in the data set with mesenteric artery turned out to be 0.8 µM. Also, the IC50 in data set [1] came out at 850 µM; in data set [2] (setting [4]), 7 µM; in data set [2] (setting [5]), 7 µM. In addition, the change in vivo at 1 mg/kg with femoral artery was found to be 36%; with vertebral artery, 48%. Moreover, in data set [3], the LD50 was 72 mg/kg.

As for `NCCCCNS(=O)(=O)c1ccc2ncnc(N3CCCCC3)c2c1` [Compound (31), N-(4-aminobutyl)-4-piperidino-6-quinazolinesulfonamide], in the data set with mesenteric artery, the EC50 came to 21 µM. In addition, the figures for the IC50 in data set [1], in data set [2] (setting [4]) and in data set [2] (setting [5]) were 300 µM, 75 µM and 88 µM, respectively. Besides, the values for the change in vivo at 1 mg/kg in the data set on femoral artery and in the data set on vertebral artery were 28% and 48%, respectively. The compound also had an LD50 in data set [3] of 45 mg/kg.

As for `CCOC(CN1CCN(S(=O)(=O)c2ccc3ncnc(N(C)c4ccccc4)c3c2)CC1)c1ccccc1` (stereo not drawn) [Compound (23), 1-[4-(N-methylanilino)-6-quinazolinesulfonyl]-4-(2-ethoxy-2-phenylethyl)-piperazine], the EC50 in the data set on mesenteric artery was 2.2 µM. Moreover, the IC50 came to 900 µM in data set [1], 11 µM in data set [2] (setting [4]) and 24 µM in data set [2] (setting [5]). Further, the results for the change in vivo at 1 mg/kg in the data set on femoral artery and in the data set on vertebral artery were 25% and 38%, respectively. This compound also gave an LD50 in data set [3] of 98 mg/kg.

On to `CCCCN(CCCC)c1ncnc2ccc(S(=O)(=O)NCCCCN)cc12` [Compound (37), N-(4-aminobutyl)-4-dibutylamino-6-quinazolinesulfonamide], for which the EC50 in the data set on mesenteric artery was determined as 8 µM. The results for the IC50 in data set [1], in data set [2] (setting [4]) and in data set [2] (setting [5]) were 250 µM, 44 µM and 109 µM, respectively. Further, the change in vivo at 1 mg/kg in the data set on femoral artery turned out to be 24%; in the data set with vertebral artery, 41%. This compound also displayed a median lethal dose (LD50) in data set [3] of 103 mg/kg.
